In PubChem BioAssay (NCI):
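Five concentrations, 48 hours, 96-well plates. At the TGI there is no net growth.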

Key:
Assay in all cases: inhibition of tumour cell growth, NCI panel, 48 h
786-0 renal = tested on: 786-0 renal
A498 renal = tested on: A498 renal
A549 NSCLC = tested on: A549 NSCLC
BT-549 breast = tested on: BT-549 breast
CAKI-1 renal = tested on: CAKI-1 renal
CCRF-CEM leukemia = tested on: CCRF-CEM leukemia
COLO 205 colon = tested on: COLO 205 colon
DU-145 prostate = tested on: DU-145 prostate
EKVX NSCLC = tested on: EKVX NSCLC
HCT-116 colon = tested on: HCT-116 colon
HCT-15 colon = tested on: HCT-15 colon
HL-60(TB) leukemia = tested on: HL-60(TB) leukemia
HOP-62 NSCLC = tested on: HOP-62 NSCLC
HOP-92 NSCLC = tested on: HOP-92 NSCLC
HS 578T breast = tested on: HS 578T breast
HT29 colon = tested on: HT29 colon
IGROV1 ovarian = tested on: IGROV1 ovarian
K-562 leukemia = tested on: K-562 leukemia
KM12 colon = tested on: KM12 colon
LOX IMVI melanoma = tested on: LOX IMVI melanoma
M14 melanoma = tested on: M14 melanoma
MALME-3M melanoma = tested on: MALME-3M melanoma
MCF7 breast = tested on: MCF7 breast
MDA-MB-231 breast = tested on: MDA-MB-231 breast
MDA-MB-435 = tested on: MDA-MB-435
MDA-N = tested on: MDA-N
MOLT-4 leukemia = tested on: MOLT-4 leukemia
NCI-H226 lung = tested on: NCI-H226 lung
NCI-H23 lung = tested on: NCI-H23 lung
NCI-H460 lung = tested on: NCI-H460 lung
NCI-H522 lung = tested on: NCI-H522 lung
NCI/ADR-RES ovarian = tested on: NCI/ADR-RES ovarian
OVCAR-3 ovarian = tested on: OVCAR-3 ovarian
OVCAR-4 ovarian = tested on: OVCAR-4 ovarian
OVCAR-8 ovarian = tested on: OVCAR-8 ovarian
PC-3 prostate = tested on: PC-3 prostate
RPMI-8226 leukemia = tested on: RPMI-8226 leukemia
RXF 393 renal = tested on: RXF 393 renal
SF-268 CNS = tested on: SF-268 CNS
SF-295 CNS = tested on: SF-295 CNS
SF-539 CNS = tested on: SF-539 CNS
SK-MEL-28 melanoma = tested on: SK-MEL-28 melanoma
SK-OV-3 ovarian = tested on: SK-OV-3 ovarian
SN12C renal = tested on: SN12C renal
SNB-19 CNS = tested on: SNB-19 CNS
SNB-75 CNS = tested on: SNB-75 CNS
SR leukemia = tested on: SR leukemia
SW-620 colon = tested on: SW-620 colon
TK-10 renal = tested on: TK-10 renal
U251 CNS = tested on: U251 CNS
UACC-257 melanoma = tested on: UACC-257 melanoma
UACC-62 melanoma = tested on: UACC-62 melanoma
UO-31 renal = tested on: UO-31 renal

Measured: TGI

CC(=O)c1nc2ccccc2n1C(C)C(=O)c1ccccc1 (stereo not drawn)
> 100 µM: all assays above
